Results as given in patent US12447153B2, “HER2 mutation inhibitors” (Array BioPharma Inc., priority 2021, dated 2025).

What was measured:
[1] = biological target: ErbB2 WT (Homo sapiens (Human), UniProt P04626); assay: ErbB Enzyme Assay (HTRF KinEASE-TK), Assay 2; type: biochemical
[2] = biological target: EGFR (Homo sapiens (Human), UniProt P00533); assay: ErbB Enzyme Assay (HTRF KinEASE-TK), Assay 3; type: biochemical
[3] = biological target: ErbB2 with Exon 20 YVMA insertion (HER2-YVMA) (Homo sapiens (Human), UniProt P04626, INS775YVMA); assay: Cellular Phosphorylation Assay, Assay 4 (constitutive ErbB2 phosphorylation, NIH 3T3 cells); type: cell-based
[4] = biological target: EGFR wild type (EGFR WT) (Homo sapiens (Human), UniProt P00533); assay: Cellular Phosphorylation Assay, Assay 5 (EGF-stimulated EGFR phosphorylation, NIH 3T3 cells); type: cell-based
[5] = biological target: BCRP (Homo sapiens (Human), UniProt Q9UNQ0); assay: BCRP MDCKII efflux assay (Assay 7); type: in vitro ADME; conditions: dog; efflux ratio Papp(B-A)/Papp(A-B), BCRP MDCKII cells; read-out: Assay 7 Pe Ratio
Method: Assay conditions included with and without the BCRP-specific inhibitor, KO143, at a concentration of 0.3 μM to ascertain the contribution of BCRP to the efflux value of the test compound.
Final organic concentration in the assay was 1%.

[6] = EGF-stimulated EGFR WT phosphorylation
[7] = cellular ErbB2 YVMA phosphorylation
[8] = cellular EGFR WT phosphorylation, EGF-stimulated

ErbB2 with Exon 20 YVMA insertion (HER2-YVMA), sequence (P04626 other isoform, or with tags, fused parts or gaps ins YVMA behind 775): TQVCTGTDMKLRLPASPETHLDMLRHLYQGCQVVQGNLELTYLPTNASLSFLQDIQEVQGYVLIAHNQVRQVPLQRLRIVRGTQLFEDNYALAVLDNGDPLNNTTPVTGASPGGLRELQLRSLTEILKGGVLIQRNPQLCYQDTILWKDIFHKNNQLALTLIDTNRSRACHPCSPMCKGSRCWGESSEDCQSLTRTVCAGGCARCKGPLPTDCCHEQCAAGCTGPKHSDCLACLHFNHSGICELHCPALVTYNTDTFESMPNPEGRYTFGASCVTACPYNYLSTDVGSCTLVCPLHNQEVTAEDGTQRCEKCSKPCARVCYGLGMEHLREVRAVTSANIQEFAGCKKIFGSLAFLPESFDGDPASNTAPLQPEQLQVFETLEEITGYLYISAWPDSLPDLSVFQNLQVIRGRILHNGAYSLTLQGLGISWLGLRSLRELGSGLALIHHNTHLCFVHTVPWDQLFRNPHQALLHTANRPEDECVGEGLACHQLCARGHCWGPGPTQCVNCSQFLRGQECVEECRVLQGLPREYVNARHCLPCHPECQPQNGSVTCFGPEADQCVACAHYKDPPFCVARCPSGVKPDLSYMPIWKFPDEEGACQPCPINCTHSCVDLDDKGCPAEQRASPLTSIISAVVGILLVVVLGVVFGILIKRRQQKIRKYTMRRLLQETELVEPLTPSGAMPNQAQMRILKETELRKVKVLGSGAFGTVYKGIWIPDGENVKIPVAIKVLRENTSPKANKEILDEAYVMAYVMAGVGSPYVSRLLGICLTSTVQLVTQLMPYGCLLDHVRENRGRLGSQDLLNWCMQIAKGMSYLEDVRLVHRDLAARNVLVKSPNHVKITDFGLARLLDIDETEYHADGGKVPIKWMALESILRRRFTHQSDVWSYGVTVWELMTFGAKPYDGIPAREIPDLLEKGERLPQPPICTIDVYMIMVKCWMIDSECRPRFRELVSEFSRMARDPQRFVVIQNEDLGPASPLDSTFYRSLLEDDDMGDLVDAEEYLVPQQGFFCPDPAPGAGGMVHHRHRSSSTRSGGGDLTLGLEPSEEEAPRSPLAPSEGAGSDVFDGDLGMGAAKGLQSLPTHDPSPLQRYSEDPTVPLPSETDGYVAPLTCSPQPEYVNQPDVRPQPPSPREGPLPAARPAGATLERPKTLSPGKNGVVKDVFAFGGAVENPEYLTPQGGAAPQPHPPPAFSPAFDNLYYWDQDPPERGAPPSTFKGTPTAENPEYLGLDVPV
EGFR, sequence (P00533 25-1210): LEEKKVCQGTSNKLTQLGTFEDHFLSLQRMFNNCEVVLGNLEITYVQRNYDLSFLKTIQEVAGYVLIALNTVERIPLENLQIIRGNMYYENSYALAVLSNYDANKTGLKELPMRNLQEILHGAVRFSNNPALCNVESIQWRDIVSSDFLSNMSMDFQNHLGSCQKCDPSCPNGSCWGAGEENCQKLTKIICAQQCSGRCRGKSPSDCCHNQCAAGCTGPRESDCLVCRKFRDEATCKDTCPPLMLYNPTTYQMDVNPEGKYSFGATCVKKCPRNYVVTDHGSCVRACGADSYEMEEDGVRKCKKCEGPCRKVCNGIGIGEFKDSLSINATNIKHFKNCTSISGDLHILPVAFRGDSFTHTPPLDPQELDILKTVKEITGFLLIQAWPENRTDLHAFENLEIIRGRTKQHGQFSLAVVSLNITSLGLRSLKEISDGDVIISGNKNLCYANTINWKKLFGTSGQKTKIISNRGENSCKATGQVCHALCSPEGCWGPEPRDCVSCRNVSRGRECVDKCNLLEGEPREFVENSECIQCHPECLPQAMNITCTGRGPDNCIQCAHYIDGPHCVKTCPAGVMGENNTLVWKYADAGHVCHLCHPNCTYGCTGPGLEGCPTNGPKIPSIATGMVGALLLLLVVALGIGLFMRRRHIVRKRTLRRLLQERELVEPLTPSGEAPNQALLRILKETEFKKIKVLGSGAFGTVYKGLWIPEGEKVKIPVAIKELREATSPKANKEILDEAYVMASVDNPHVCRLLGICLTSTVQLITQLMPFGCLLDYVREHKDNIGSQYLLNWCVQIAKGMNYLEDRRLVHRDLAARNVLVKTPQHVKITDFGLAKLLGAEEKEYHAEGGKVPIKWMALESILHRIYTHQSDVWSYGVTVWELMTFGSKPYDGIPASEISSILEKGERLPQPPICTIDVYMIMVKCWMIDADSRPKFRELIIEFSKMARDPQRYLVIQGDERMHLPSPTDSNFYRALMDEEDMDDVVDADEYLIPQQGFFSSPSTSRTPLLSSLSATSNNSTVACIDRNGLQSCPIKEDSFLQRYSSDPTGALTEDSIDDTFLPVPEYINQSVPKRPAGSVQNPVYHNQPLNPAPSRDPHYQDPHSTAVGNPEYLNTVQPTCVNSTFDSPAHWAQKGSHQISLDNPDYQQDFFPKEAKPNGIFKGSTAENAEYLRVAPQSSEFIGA
EGFR wild type (EGFR WT), sequence (P00533 25-1210): as above
BCRP, sequence (Q9UNQ0 whole entry): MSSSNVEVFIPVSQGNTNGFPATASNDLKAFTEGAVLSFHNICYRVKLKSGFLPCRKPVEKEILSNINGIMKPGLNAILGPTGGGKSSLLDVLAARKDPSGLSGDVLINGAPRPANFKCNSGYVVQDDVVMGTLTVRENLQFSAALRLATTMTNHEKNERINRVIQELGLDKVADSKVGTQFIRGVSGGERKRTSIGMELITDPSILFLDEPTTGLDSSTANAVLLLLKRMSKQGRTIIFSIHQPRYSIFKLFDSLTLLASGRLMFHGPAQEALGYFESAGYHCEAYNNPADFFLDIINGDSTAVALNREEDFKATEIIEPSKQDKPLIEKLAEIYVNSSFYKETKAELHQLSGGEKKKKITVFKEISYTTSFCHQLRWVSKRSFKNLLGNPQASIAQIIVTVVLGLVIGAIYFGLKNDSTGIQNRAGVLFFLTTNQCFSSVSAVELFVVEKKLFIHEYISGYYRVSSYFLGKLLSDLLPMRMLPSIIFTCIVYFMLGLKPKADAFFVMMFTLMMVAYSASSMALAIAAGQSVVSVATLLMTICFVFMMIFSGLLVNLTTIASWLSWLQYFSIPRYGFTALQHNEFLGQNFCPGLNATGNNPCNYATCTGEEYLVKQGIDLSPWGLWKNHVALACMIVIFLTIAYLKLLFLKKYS

Structure (SMILES)	IC50 ([1]; ErbB2 WT enzyme) [µM]	IC50 ([2]; EGFR enzyme) [µM]	IC50 ([3]; ErbB2 YVMA phosphorylation) [µM]	IC50 [4, 6] [µM]	efflux ratio at 2 h, 1 µM [5]	IC50 ([1]; ErbB2 WT enzyme assay) [µM]	IC50 ([2]; EGFR enzyme assay) [µM]	IC50 [3, 7] [µM]	IC50 [4, 8] [µM]
C=CC(=O)N1CCN(c2nc3c(Oc4ccc(Oc5ccc6c(c5)ncn6C)c(C)c4)ncnc3cc2OC)CC1 [Example 41, 1-(4-(7-methoxy-4-(3-methyl-4-((1-methyl-1H-benzo[d]imidazol-5-yl)oxy)phenoxy)pyrido[3,2-d]pyrimidin-6-yl)piperazin-1-yl)prop-2-en-1-one]	0.13	5.07	0.031	≥ 5	16.7	–	–	–	–
C=CC(=O)N1CCN(c2ccc3ncnc(Nc4ccc(Oc5cc(F)c6c(c5)ncn6C)c(C)c4)c3n2)CC1(C)C [Example 277]	–	–	–	–	7.3	0.0237	0.992	0.0125	0.975
C=CC(=O)N1CCC(Sc2nc3c(Nc4ccc(Oc5ccc6c(c5)ncn6C)c(C)c4)ncnc3cc2OC)CC1 [Example 159, 1-(4-((7-methoxy-4-((3-methyl-4-((1-methyl-1H-benzo[d]imidazol-5-yl)oxy)phenyl)amino)pyrido[3,2-d]pyrimidin-6-yl)thio)piperidin-1-yl)prop-2-en-1-one]	0.0204	0.452	0.012	0.493	15	–	–	–	–
C=CC(=O)N1CCN(c2ccc3ncnc(Nc4ccc(Oc5cc(F)c6c(c5)ncn6C)c(C)c4)c3n2)CC1 [Example 276]	–	–	–	–	25.2	0.01	0.35	0.0067	0.302
C=CC(=O)N1CCCC[C@@H](c2ccc3ncnc(Nc4cc(C)c(Oc5ccc6c(c5)ncn6C)cc4F)c3n2)C1 (racemic) [Example 137, rac-(R)-1-(3-(4-((2-fluoro-5-methyl-4-((1-methyl-1H-benzo[d]imidazol-5-yl)oxy)phenyl)amino)pyrido[3,2-d]pyrimidin-6-yl)azepan-1-yl)prop-2-en-1-one]	0.0279	2.63	0.0168	4.37	1.9	–	–	–	–
C=CC(=O)N1CCN(c2ccc3ncnc(Nc4cc(Cl)c(Oc5cnc6c(c5)ncn6C)cc4F)c3n2)CC1(C)C [Example 452]	–	–	–	–	6.2	0.452	1.06	0.0128	≥ 5
C=CC(=O)N1CCN(c2ccc3ncnc(Nc4ccc(Oc5cnc6c(c5)ncn6C)c(C)c4F)c3n2)C[C@@H]1C(F)F (racemic) [Example 300]	–	–	–	–	5.8	0.0113	0.277	0.0095	0.653
C=CC(=O)N1C[C@H]2CC[C@@H]1C[C@@H]2c1ccc2ncnc(Nc3cc(C)c(Oc4cnc5c(c4)ncn5C)cc3F)c2n1 [Example 420]	–	–	–	–	2.5	0.289	≥ 10	0.0338	≥ 5
C=CC(=O)N1CC[C@@H](c2ccc3ncnc(Nc4cc(C)c(Oc5ccc6c(c5)ncn6C)cc4F)c3n2)C1 (racemic) [Example 132, rac-(R)-1-(3-(4-((2-fluoro-5-methyl-4-((1-methyl-1H-benzo[d]imidazol-5-yl)oxy)phenyl)amino)pyrido[3,2-d]pyrimidin-6-yl)pyrrolidin-1-yl)prop-2-en-1-one]	0.0759	≥ 10	0.0188	≥ 5	7.9	–	–	–	–
C=CC(=O)N1C[C@H](c2ccc3ncnc(Nc4cc(C)c(Oc5ccc6c(c5)ncn6C)cc4F)c3n2)CCC1(C)C (racemic) [Example 141, rac-(R)-1-(5-(4-((2-fluoro-5-methyl-4-((1-methyl-1H-benzo[d]imidazol-5-yl)oxy)phenyl)amino)pyrido[3,2-d]pyrimidin-6-yl)-2,2-dimethylpiperidin-1-yl)prop-2-en-1-one]	0.18	≥ 10	0.0176	≥ 5	2.4	–	–	–	–
C=CC(=O)N1CC2CCC(C1)N2c1ccc2ncnc(Nc3ccc(Oc4ccn5ncnc5c4)c(C)c3F)c2n1 [Example 455]	–	–	–	–	9.6	0.0041	0.0873	0.0048	0.193

Second part, the molecule after the results:

IC50 ([1]; ErbB2 WT enzyme) [µM]	IC50 ([2]; EGFR enzyme) [µM]	IC50 ([3]; ErbB2 YVMA phosphorylation) [µM]	IC50 [4, 6] [µM]	efflux ratio at 2 h, 1 µM [5]	IC50 ([1]; ErbB2 WT enzyme assay) [µM]	IC50 ([2]; EGFR enzyme assay) [µM]	IC50 [3, 7] [µM]	IC50 [4, 8] [µM]	Structure (SMILES)
0.255	≥ 10	0.0299	≥ 5	23.5	–	–	–	–	C=CC(=O)N1CCCN(c2ccc3ncnc(Nc4ccc(Oc5cnc6c(c5)ncn6C)c(C)c4)c3n2)CC1 [Example 114, 1-(4-(4-((3-methyl-4-((3-methyl-3H-imidazo[4,5-b]pyridin-6-yl)oxy)phenyl)amino)pyrido[3,2-d]pyrimidin-6-yl)-1,4-diazepan-1-yl)prop-2-en-1-one]
0.0062	1.4	0.0104	2.73	2.7	–	–	–	–	C=CC(=O)N1CCC[C@@H](c2ccc3ncnc(Nc4ccc(Oc5ccc6c(c5)ncn6C)c(C)c4)c3n2)C1 (racemic) [Example 35, 1-(3-(4-((3-methyl-4-((1-methyl-1H-benzo[d]imidazol-5-yl)oxy)phenyl)amino)pyrido[3,2-d]pyrimidin-6-yl)piperidin-1-yl)prop-2-en-1-one]
–	–	–	–	26	0.0224	2.87	0.0537	≥ 5	C=CC(=O)N1CC2(CCN2c2ccc3ncnc(Nc4ccc(Oc5ccn6ncnc6c5)c(C)c4F)c3n2)C1 [Example 289]
0.017	0.218	0.0041	0.246	12.4	–	–	–	–	C=CC(=O)N1C[C@@H]2C[C@H]1CN2c1ccc2ncnc(Nc3cc(Cl)c(Oc4ccn5ncnc5c4)cc3F)c2n1 [Example 80, 1-((1S,4S)-5-(4-((4-([1,2,4]triazolo[1,5-a]pyridin-7-yloxy)-5-chloro-2-fluorophenyl)amino)pyrido[3,2-d]pyrimidin-6-yl)-2,5-diazabicyclo[2.2.1]heptan-2-yl)prop-2-en-1-one]
–	–	–	–	7.4	0.0097	1.08	0.0055	0.818	C=CC(=O)N1CCN(c2ccc3ncnc(Nc4ccc(Oc5ccn6ncnc6c5)c(C)c4F)c3n2)C[C@@H]1COC [Example 362]
0.058	6.16	0.005	2.53	84.4	–	–	–	–	C=CC(=O)N1CCN(c2ccc3ncnc(Nc4ccc(Oc5cnc6c(c5)ncn6C)c(C)c4)c3n2)CC1 [Example 110, 1-(4-(4-((3-methyl-4-((3-methyl-3H-imidazo[4,5-b]pyridin-6-yl)oxy)phenyl)amino)pyrido[3,2-d]pyrimidin-6-yl)piperazin-1-yl)prop-2-en-1-one]
0.0373	1.04	0.0209	0.613	17.5	–	–	–	–	C=CC(=O)N1CCN(c2nc3c(Nc4ccc(Oc5ccn6ncnc6c5)c(C)c4F)ncnc3cc2OC)CC1 [Example 152, 1-(4-(4-((4-([1,2,4]triazolo[1,5-a]pyridin-7-yloxy)-2-fluoro-3-methylphenyl)amino)-7-methoxypyrido[3,2-d]pyrimidin-6-yl)piperazin-1-yl)prop-2-en-1-one]
0.0158	1.15	0.0038	0.869	42.7	–	–	–	–	C=CC(=O)N1CCN(c2ccc3ncnc(Nc4ccc(Oc5cnc6c(c5)ncn6C)c(Cl)c4)c3n2)CC1 [Example 33, 1-(4-(4-((3-chloro-4-((3-methyl-3H-imidazo[4,5-b]pyridin-6-yl)oxy)phenyl)amino)pyrido[3,2-d]pyrimidin-6-yl)piperazin-1-yl)prop-2-en-1-one]
–	–	–	–	1.7	0.0458	8.97	0.0298	1.07	C=CC(=O)N1CCN(c2ccc3ncnc(Nc4ccc(Oc5ccn6ncnc6c5)c(C)c4F)c3n2)C[C@H]1C(C)C [Example 267]
–	–	–	–	6.4	0.0664	2.86	0.031	≥ 5	C=CC(=O)N(C)[C@H]1CCN(c2ccc3ncnc(Nc4cc(C)c(Oc5ccn6ncnc6c5)cc4F)c3n2)C1 [Example 351]
0.0332	9.43	0.0095	≥ 5	17.4	–	–	–	–	C=CC(=O)N1CCN(c2ccc3ncnc(Nc4cc(Cl)c(Oc5ccn6ncnc6c5)cc4F)c3n2)CC1 [Example 81, 1-(4-(4-((4-([1,2,4]triazolo[1,5-a]pyridin-7-yloxy)-5-chloro-2-fluorophenyl)amino)pyrido[3,2-d]pyrimidin-6-yl)piperazin-1-yl)prop-2-en-1-one]
0.01	2.95	0.0216	≥ 5	41.8	–	–	–	–	C=CC(=O)N1CCC2CN(c3ccc4ncnc(Nc5ccc(Oc6ccn7ncnc7c6)c(Cl)c5)c4n3)CC21 (stereo not drawn) [Example 70, 1-(5-(4-((4-([1,2,4]triazolo[1,5-a]pyridin-7-yloxy)-3-chlorophenyl)amino)pyrido[3,2-d]pyrimidin-6-yl)hexahydropyrrolo[3,4-b]pyrrol-1(2H)-yl)prop-2-en-1-one]
0.0029	≥ 10	0.0046	1.32	10.9	–	–	–	–	C=CC(=O)N1CCN(c2ccc3ncnc(Nc4ccc(Oc5ccc6c(c5)ncn6C)c(C)c4)c3n2)CC1(C)C [Example 103, 1-(2,2-dimethyl-4-(4-((3-methyl-4-((1-methyl-1H-benzo[d]imidazol-5-yl)oxy)phenyl)amino)pyrido[3,2-d]pyrimidin-6-yl)piperazin-1-yl)prop-2-en-1-one]
